Tests used:
Hep3B = experiment: MTT assay, Hep3B HCC cell line; type: cell-based; conditions: Homo sapiens, 48 h, mean of triplicate assays ± SEM
Procedure: (§1) Two HCC cell lines (Hep3B and HepG2) were used for screening the antiproliferative activity of the synthesized compounds. The cell lines were obtained from the European Collection of Cell Cultures (ECACC, UK) and maintained in Dulbecco's Modified Eagle Medium (DMEM: Sigma-Aldrich) supplemented with 10% fetal bovine serum (FBS) and 1% penicillin/streptomycin and incubated at 37° C. in a 5% CO2 air atmosphere. In addition, WI-38 normal cell line was used to investigate the safety of these compounds.
(§2) MTT assay was conducted to calculate the IC50 of the compounds following the reported procedure . Briefly, the cells were seeded in 96-well tissue culture plates with a density of 5×10^4 cells/well and incubated overnight at 37° C. in a 5% CO2 air atmosphere. […] DMSO was used as a negative control. After 48 h, the media were aspirated, and replaced with media containing 0.5 mg/mL of MTT tetrazolium dye (Sigma-Aldrich) for 2 h at 37° C. Finally, the media were removed and 200 μL of DMSO was added to solubilize the formazan crystals. Absorbance was then measured at 570 nm using Varioskan Flash multimode plate reader (Thermo Scientific, Massachusetts, USA).

[1] = tested on: hepatocellular carcinoma cell lines; experiment: Screening against HCC cell lines; type: cell-based
Procedure: The target compounds were tested against hepatocellular carcinoma cell lines. Compounds 1j. 13a. 13b. 13c. […] The mean inhibition percentage values are illustrated in Table 9.
as §1
MTT assay was conducted to calculate the IC50 of the compounds following the reported procedure . Briefly, the cells were seeded in 96-well tissue culture plates with a density of 5×10^4 cells/well and incubated overnight at 37° C. in a 5% CO2 air atmosphere. After that, cells were treated with the newly synthesized compounds or sorafenib as a positive control. DMSO was used as a negative control. After 48 h, the media were aspirated, and replaced with media containing 0.5 mg/mL of MTT tetrazolium dye (Sigma-Aldrich) for 2 h at 37° C. Finally, the media were removed and 200 μL of DMSO was added to solubilize the formazan crystals. Absorbance was then measured at 570 nm using Varioskan Flash multimode plate reader (Thermo Scientific, Massachusetts, USA).

HepG2 = experiment: MTT assay, HepG2 HCC cell line; type: cell-based; conditions: Homo sapiens, 48 h, mean of triplicate assays ± SEM
Procedure: as §1, §2

MCF7 = experiment: NCI-60 cell line panel: MCF7; type: cell-based; conditions: Breast Cancer, total growth inhibition
Procedure: (§3) It was carried out at the NCI, Bethesda, MD, USA, utilizing their standard protocol.

HCT-15 = experiment: NCI-60 cell line panel: HCT-15; type: cell-based; conditions: Colon Cancer, total growth inhibition
Procedure: as §3

786-0 = experiment: NCI-60 cell line panel: 786-0; type: cell-based; conditions: Renal Cancer, total growth inhibition
Procedure: as §3

EKVX = experiment: NCI-60 cell line panel: EKVX; type: cell-based; conditions: Non-Small Cell Lung Cancer, total growth inhibition, in µM (unit assumed)
Procedure: as §3

NCI-H23 = experiment: NCI-60 cell line panel: NCI-H23; type: cell-based; conditions: Non-Small Cell Lung Cancer
Procedure: as §3

HOP-62 = experiment: NCI-60 cell line panel: HOP-62; type: cell-based; conditions: Non-Small Cell Lung Cancer
Procedure: as §3

SNB-19 = experiment: NCI-60 cell line panel: SNB-19; type: cell-based; conditions: CNS Cancer, total growth inhibition
Procedure: as §3

SW-620 = experiment: NCI-60 cell line panel: SW-620; type: cell-based; conditions: Colon Cancer, total growth inhibition
Procedure: as §3

A498 = experiment: NCI-60 cell line panel: A498; type: cell-based; conditions: Renal Cancer, total growth inhibition
Procedure: as §3

NCI-H226 = experiment: NCI-60 cell line panel: NCI-H226; type: cell-based; conditions: Non-Small Cell Lung Cancer
Procedure: as §3

MDA-MB-231/ATCC = experiment: NCI-60 cell line panel: MDA-MB-231/ATCC; type: cell-based; conditions: Breast Cancer
Procedure: as §3

panel of 50 kinases = experiment: 50-kinase panel; type: biochemical
PC-3 = experiment: NCI-60 cell line panel: PC-3; type: cell-based; conditions: Prostate Cancer
Procedure: as §3

M14 = experiment: NCI-60 cell line panel: M14; type: cell-based; conditions: Melanoma
Procedure: as §3

BT-549 = experiment: NCI-60 cell line panel: BT-549; type: cell-based; conditions: Breast Cancer, total growth inhibition
Procedure: as §3

SF-268 = experiment: NCI-60 cell line panel: SF-268; type: cell-based; conditions: CNS Cancer, total growth inhibition
Procedure: as §3

UACC-257 = experiment: NCI-60 cell line panel: UACC-257; type: cell-based; conditions: Melanoma
Procedure: as §3

NCI/ADR-RES = experiment: NCI-60 cell line panel: NCI/ADR-RES; type: cell-based; set-up: TGI: unit not given here; conditions: Ovarian Cancer, total growth inhibition
Procedure: as §3

CAKI-1 = experiment: NCI-60 cell line panel: CAKI-1; type: cell-based; set-up: TGI: unit not given here; conditions: Renal Cancer, total growth inhibition
Procedure: as §3

ACHN = experiment: NCI-60 cell line panel: ACHN; type: cell-based; conditions: Renal Cancer, total growth inhibition
Procedure: as §3

OVCAR-4 = experiment: NCI-60 cell line panel: OVCAR-4; type: cell-based; conditions: Ovarian Cancer, total growth inhibition, in µM (unit assumed)
Procedure: as §3

MALME-3M = experiment: NCI-60 cell line panel: MALME-3M; type: cell-based; conditions: Melanoma
Procedure: as §3

MDA-MB-468 = experiment: NCI-60 cell line panel: MDA-MB-468; type: cell-based; conditions: Breast Cancer, total growth inhibition
Procedure: as §3

COLO 205 = experiment: NCI-60 cell line panel: COLO 205; type: cell-based; set-up: TGI: unit not given here; conditions: Colon Cancer
Procedure: as §3

MOLT-4 = experiment: NCI-60 cell line panel: MOLT-4; type: cell-based; set-up: TGI: unit not given here; conditions: Leukemia, total growth inhibition
Procedure: as §3

OVCAR-8 = experiment: NCI-60 cell line panel: OVCAR-8; type: cell-based; conditions: Ovarian Cancer, total growth inhibition, in µM (unit assumed)
Procedure: as §3

UO-31 = experiment: NCI-60 cell line panel: UO-31; type: cell-based; set-up: TGI: unit not given here; conditions: Renal Cancer, total growth inhibition
Procedure: as §3

IGROV1 = experiment: NCI-60 cell line panel: IGROV1; type: cell-based; conditions: Ovarian Cancer, total growth inhibition
Procedure: as §3

NCI-H322M = experiment: NCI-60 cell line panel: NCI-H322M; type: cell-based; conditions: Non-Small Cell Lung Cancer, total growth inhibition
Procedure: as §3

NCI-H522 = experiment: NCI-60 cell line panel: NCI-H522; type: cell-based; set-up: TGI: unit not given here; conditions: Non-Small Cell Lung Cancer
Procedure: as §3

SK-OV-3 = experiment: NCI-60 cell line panel: SK-OV-3; type: cell-based; conditions: Ovarian Cancer, total growth inhibition
Procedure: as §3

DU-145 = experiment: NCI-60 cell line panel: DU-145; type: cell-based; conditions: Prostate Cancer, total growth inhibition
Procedure: as §3

CCRF-CEM = experiment: NCI-60 cell line panel: CCRF-CEM; type: cell-based; conditions: Leukemia
Procedure: as §3

SK-MEL-28 = experiment: NCI-60 cell line panel: SK-MEL-28; type: cell-based; conditions: Melanoma, total growth inhibition
Procedure: as §3

OVCAR-5 = experiment: NCI-60 cell line panel: OVCAR-5; type: cell-based; conditions: Ovarian Cancer, total growth inhibition
Procedure: as §3

OVCAR-3 = experiment: NCI-60 cell line panel: OVCAR-3; type: cell-based; conditions: Ovarian Cancer, total growth inhibition
Procedure: as §3

NCI-H460 = experiment: NCI-60 cell line panel: NCI-H460; type: cell-based; conditions: Non-Small Cell Lung Cancer, total growth inhibition
Procedure: as §3

SNB-75 = experiment: NCI-60 cell line panel: SNB-75; type: cell-based; set-up: TGI: unit not given here; conditions: CNS Cancer, total growth inhibition
Procedure: as §3

SN12C = experiment: NCI-60 cell line panel: SN12C; type: cell-based; conditions: Renal Cancer, total growth inhibition
Procedure: as §3

SK-MEL-2 = experiment: NCI-60 cell line panel: SK-MEL-2; type: cell-based; set-up: TGI: unit not given here; conditions: Melanoma
Procedure: as §3

HT29 = experiment: NCI-60 cell line panel: HT29; type: cell-based
Procedure: as §3

HS 578T = experiment: NCI-60 cell line panel: HS 578T; type: cell-based; conditions: Breast Cancer, HS 578T; total growth inhibition
Procedure: as §3

SR = experiment: NCI-60 cell line panel: SR; type: cell-based; conditions: Leukemia, total growth inhibition
Procedure: as §3

TK-10 = experiment: NCI-60 cell line panel: TK-10; type: cell-based; conditions: Renal Cancer
Procedure: as §3

A549/ATCC = experiment: NCI-60 cell line panel: A549/ATCC; type: cell-based; conditions: Non-Small Cell Lung Cancer, total growth inhibition
Procedure: as §3

RXF 393 = experiment: NCI-60 cell line panel: RXF 393; type: cell-based; conditions: Renal Cancer, total growth inhibition
Procedure: as §3

U251 = experiment: NCI-60 cell line panel: U251; type: cell-based; set-up: TGI: unit not given here
Procedure: as §3

O=C(Nc1ccc(-c2cc(C(=O)Nc3ccccn3)c3ncccc3n2)cc1)Nc1ccc(F)c(C(F)(F)F)c1 [Compound 1j, 2-(4-(3-(4-Fluoro-3-(trifluoromethyl)phenyl)ureido)phenyl)-N-(pyridin-2-yl)-1,5-naphthyridine-4-carboxamide]
IC50 (Hep3B): 3.87 ± 0.13 µM
inhibition activity against hepatocellular carcinoma cell lines compared with sorafenib [1]: higher inhibition activity than sorafenib
IC50 (HepG2): 3.68 ± 0.22 µM

CNC(=O)c1cc(-c2ccc(NC(=S)Nc3cc(C(F)(F)F)cc(C(F)(F)F)c3)cc2)nc2cccnc12 [Compound 1m, 2-(4-(3-(3,5-Bis(trifluoromethyl)phenyl)thioureido)phenyl)-N-methyl-1,5-naphthyridine-4-carboxamide]
IC50 (Hep3B): 6.56 ± 0.31 µM
inhibition activity against hepatocellular carcinoma cell lines compared with sorafenib [1]: inhibition activity comparable to sorafenib
IC50 (HepG2): 5.74 ± 0.2 µM

CNC(=O)c1cc(-c2ccc(NC(=O)Nc3ccc(N4CCOCC4)c(C(F)(F)F)c3)cc2)nc2cccnc12 [Compound 13a, N-Methyl-2-(4-(3-(4-morpholino-3-(trifluoromethyl)phenyl)ureido)phenyl)-1,5-naphthyridine-4-carboxamide]
IC50 (Hep3B): 1.89 ± 0.18 µM
inhibition activity against hepatocellular carcinoma cell lines compared with sorafenib [1]: higher inhibition activity than sorafenib
IC50 (HepG2): 1.27 ± 0.14 µM

CNC(=O)c1cc(Oc2ccc(NC(=O)Nc3ccc(Cl)c(C(F)(F)F)c3)cc2)ccn1 [Sorafenib, reference compound]
TGI (MCF7): 7.94 µM
TGI (HCT-15): 3.16 µM
TGI (786-0): 5.01 µM
TGI (EKVX): 19.95
IC50 (NCI-H23; Homo sapiens): 2 µM
TGI (NCI-H23; total growth inhibition): 5.01 µM
IC50 (HOP-62; Homo sapiens): 2 µM
TGI (HOP-62; total growth inhibition): 3.16 µM
TGI (SNB-19): 3.98 µM
TGI (SW-620): 5.01 µM
TGI (A498): 3.16 µM
IC50 (NCI-H226; Homo sapiens): 2 µM
TGI (NCI-H226; total growth inhibition): 3.16 µM
TGI (MDA-MB-231/ATCC; total growth inhibition): 3.16 µM
IC50 (MDA-MB-231/ATCC; Homo sapiens): 1.26 µM
number of kinases inhibited (more than 50% inhibition) (panel of 50 kinases): 22 kinases
IC50 (PC-3; Homo sapiens): 2 µM
TGI (PC-3; total growth inhibition): 5.01 µM
IC50 (M14; Homo sapiens): 2 µM
TGI (M14; total growth inhibition): 3.16 µM
TGI (BT-549): 3.98 µM
TGI (SF-268): 3.98 µM
IC50 (UACC-257; Homo sapiens): 2 µM
TGI (UACC-257; total growth inhibition): 5.01 µM
TGI (NCI/ADR-RES): 7.94
TGI (CAKI-1): 12.59
TGI (ACHN): 10 µM
TGI (OVCAR-4): 25.12
IC50 (MALME-3M; Homo sapiens): 2 µM
TGI (MALME-3M; total growth inhibition, in µM (unit assumed)): 39.81
TGI (MDA-MB-468): 7.94 µM
TGI (COLO 205; total growth inhibition): 3.16
IC50 (COLO 205; Homo sapiens): 2 µM
TGI (MOLT-4): 100
TGI (OVCAR-8): 12.59
TGI (UO-31): 6.31
TGI (IGROV1): 10 µM
TGI (NCI-H322M): 5.01 µM
IC50 (NCI-H522; Homo sapiens): 2 µM
TGI (NCI-H522; total growth inhibition): 5.01
TGI (SK-OV-3): 5.01 µM
TGI (DU-145): 7.94 µM
IC50 (CCRF-CEM; Homo sapiens): 2 µM
TGI (CCRF-CEM; total growth inhibition): 5.01 µM
TGI (SK-MEL-28): 2.51 µM
TGI (OVCAR-5): 6.31 µM
TGI (OVCAR-3): 3.98 µM
TGI (NCI-H460): 5.01 µM
TGI (SNB-75): 3.98
TGI (SN12C): 3.16 µM
IC50 (SK-MEL-2; Homo sapiens): 2 µM
TGI (SK-MEL-2; total growth inhibition): 6.31
TGI (HT29; Colon Cancer, total growth inhibition): 5.01 µM
IC50 (HT29; Homo sapiens, HT-29, Colon Cancer): 2 µM
TGI (HS 578T): 3.98 µM
TGI (SR): 63.1 µM
IC50 (TK-10; Homo sapiens): 3.98 µM
TGI (TK-10; total growth inhibition): 10 µM
TGI (A549/ATCC): 7.94 µM
TGI (RXF 393): 5.01 µM
TGI (U251; CNS Cancer, total growth inhibition): 3.16
IC50 (U251; Homo sapiens, U-251, CNS Cancer): 2 µM

Source: US20240308996A1, “PYRIDOPYRIDINES AND DERIVATIVES THEREOF AS SELECTIVE KINASE INHIBITORS” (University of Sharjah, priority 2023, published 2024)
